How the values were obtained:
bedstraw = test: Test B pre/postemergence bedstraw; format: in vivo, Galium aparine
Summary of the method: (§1)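 Herbicidal effect was estimated by eye on a ten-point control scale after plants spent twelve to sixteen days in a greenhouse following soil or foliar treatment. Foliar sprays targeted plants at one to four leaves; all doses were formulated in a non-phytotoxic solvent with surfactant.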

blackgrass = test: Test B pre/postemergence blackgrass; format: in vivo, Alopecurus myosuroides
Summary of the method: as §1

giant foxtail = test: Test B pre/postemergence giant foxtail; format: in vivo, Setaria faberii
Summary of the method: as §1

morningglory = test: Test B pre/postemergence morningglory; format: in vivo, Ipomoea hederacea
Summary of the method: as §1

pigweed = test: Test B pre/postemergence pigweed; format: in vivo, Amaranthus retroflexus
Summary of the method: as §1

rape = test: Test B pre/postemergence rape; format: in vivo, Brassica napus
Summary of the method: as §1

soybean = test: Test B pre/postemergence soybean; format: in vivo, Glycine max
Summary of the method: as §1

sugar beet = test: Test B pre/postemergence sugar beet; format: in vivo, Beta vulgaris
Summary of the method: as §1

velvetleaf = test: Test B pre/postemergence velvetleaf; format: in vivo, Abutilon theophrasti
Summary of the method: as §1

wheat = test: Test B pre/postemergence wheat; format: in vivo, Triticum aestivum
Summary of the method: as §1

wild oat = test: Test B pre/postemergence wild oat; format: in vivo, Avena fatua
Summary of the method: as §1

purple nutsedge = test: Test B pre/postemergence purple nutsedge; format: in vivo, Cyperus rotundus
Summary of the method: as §1

rice = test: Test B flood test rice; format: in vivo, Oryza sativa
Summary of the method: (§2)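 Flood test on plants grown to the 2-leaf stage; treated plants kept in greenhouse twelve to sixteen days, then visually rated against controls on a 0 (no effect) to 10 (complete control) scale.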

smallflower flatsedge = test: Test B flood test smallflower flatsedge; format: in vivo, Cyperus difformis
Summary of the method: as §2

duck salad = test: Test B flood test duck salad; format: in vivo, Heteranthera limosa
Summary of the method: as §2

bamyardgrass = test: Test B flood test barnyardgrass; format: in vivo, Echinochloa crus-galli
Summary of the method: as §2

[1] = Postemergence, Rate 62 g/ha, scale 0 to 10, 0 is no effect, 10 is complete control
[2] = Postemergence, Rate 250 g/ha, scale of 0 to 10, 0 is no effect, 10 is complete control
[3] = Postemergence, Rate 500 g/ha, scale of 0 to 10 where 0 is no effect and 10 is complete control
[4] = Preemergence, Rate 500 g/ha, scale of 0 to 10 where 0 is no effect and 10 is complete control
[5] = Postemergence, Rate 125 g/ha, scale of 0 to 10 where 0 is no effect and 10 is complete control
[6] = Preemergence, Rate 62 g/ha, scale 0 to 10 (0 no effect, 10 complete control)
[7] = Preemergence, Rate 125 g/ha, scale of 0 to 10 where 0 is no effect and 10 is complete control
[8] = Rate 62 g/ha, flood test species, Pre-emergence, visual evaluation after twelve to sixteen days
[9] = Rate 125 g/ha, under heading Pre-emergence, flood test species, visual evaluation after twelve to sixteen days
[10] = Rate 250 g/ha, Pre-emergence (flood test species), scale 0 to 10, 0 is no effect, 10 is complete control
[11] = Rate 500 g/ha, Pre-emergence section of Table B, 0 to 10 scale (0 no effect, 10 complete control)

CCC(C)n1c(=O)on(C(=O)N(c2ccccc2)C(C)C)c1=O (centres unmarked) [Compound 612]
5: Plant response rating, Morningglory (morningglory; [1]) | Plant response rating, Soybean (soybean; [5]) | Sugarbeets plant response rating (sugar beet; [7]) | Plant response rating, Wheat (wheat; [3]) | Wild oats plant response rating (wild oat; [6])
0: Morningglory plant response rating (morningglory; [6]) | Morningglory plant response rating (morningglory; [7]) | Plant response rating, Redroot pigweed (pigweed; [1]) | Plant response rating, Rape (rape; [1]) | Plant response rating, Rape (rape; [5]) | Rape plant response rating (rape; [2]) | Rape plant response rating (rape; [6]) | Soybean plant response rating (soybean; [6]) | Soybean plant response rating (soybean; [7]) | Plant response rating, Sugarbeets (sugar beet; [1]) | Plant response rating, Sugarbeets (sugar beet; [5]) | Sugarbeets plant response rating (sugar beet; [2]) | Plant response rating, Wheat (wheat; [1]) | Wheat plant response rating (wheat; [6]) | Plant response rating, Wild oats (wild oat; [1]) | Plant response rating, Nutsedge (purple nutsedge; [1]) | Plant response rating, Nutsedge (purple nutsedge; [5]) | Nutsedge plant response rating (purple nutsedge; [2]) | Nutsedge plant response rating (purple nutsedge; [6]) | Nutsedge plant response rating (purple nutsedge; [7]) | Plant response rating, Rice (0 to 10 scale, 0 is no effect, 10 is complete control) (rice; [8]) | Rice plant response rating (0 to 10 scale, 0 is no effect, 10 is complete control) (rice; [9]) | Rice plant response rating (rice; [10]) | Rice plant response rating (rice; [11]) | Plant response rating, S. Flatsedge (0 to 10 scale, 0 is no effect, 10 is complete control) (smallflower flatsedge; [8]) | S. Flatsedge plant response rating (0 to 10 scale, 0 is no effect, 10 is complete control) (smallflower flatsedge; [9]) | S. Flatsedge plant response rating (smallflower flatsedge; [10]) | S. Flatsedge plant response rating (smallflower flatsedge; [11]) | Plant response rating, Ducksalad (0 to 10 scale, 0 is no effect, 10 is complete control) (duck salad; [8]) | Ducksalad plant response rating (0 to 10 scale, 0 is no effect, 10 is complete control) (duck salad; [9]) | Ducksalad plant response rating (duck salad; [10]) | Ducksalad plant response rating (duck salad; [11]) | Plant response rating, Barnyardgrass (0 to 10 scale, 0 is no effect, 10 is complete control) (bamyardgrass; [8]) | Barnyardgrass plant response rating (0 to 10 scale, 0 is no effect, 10 is complete control) (bamyardgrass; [9]) | Barnyardgrass plant response rating (bamyardgrass; [10]) | Barnyardgrass plant response rating (bamyardgrass; [11])
9: Plant response rating, Bedstraw (bedstraw; [3]) | Plant response rating, Blackgrass (blackgrass; [5]) | Blackgrass plant response rating (blackgrass; [2]) | Plant response rating, Giant foxtail (giant foxtail; [5]) | Giant foxtail plant response rating (giant foxtail; [2]) | Plant response rating, Giant foxtail (giant foxtail; [3]) | Plant response rating, Wild oats (wild oat; [3]) | Wild oats plant response rating (wild oat; [7])
7: Plant response rating, Blackgrass (blackgrass; [1]) | Plant response rating, Giant foxtail (giant foxtail; [1]) | Plant response rating, Redroot pigweed (pigweed; [3]) | Plant response rating, Rape (rape; [3]) | Soybean plant response rating (soybean; [2]) | Plant response rating, Sugarbeets (sugar beet; [4]) | Velvetleaf plant response rating (velvetleaf; [7])
8: Blackgrass plant response rating (blackgrass; [6]) | Plant response rating, Morningglory (morningglory; [5]) | Morningglory plant response rating (morningglory; [2]) | Redroot pigweed plant response rating (pigweed; [6]) | Plant response rating, Soybean (soybean; [3]) | Plant response rating, Velvetleaf (velvetleaf; [4]) | Plant response rating, Wheat (wheat; [4])
4: Redroot pigweed plant response rating (pigweed; [2]) | Plant response rating, Soybean (soybean; [1])
2: Plant response rating, Redroot pigweed (pigweed; [5]) | Plant response rating, Velvetleaf (velvetleaf; [1]) | Plant response rating, Wheat (wheat; [5]) | Wheat plant response rating (wheat; [2]) | Plant response rating, Nutsedge (purple nutsedge; [3])
1: Plant response rating, Sugarbeets (sugar beet; [3])
10: Bedstraw plant response rating (bedstraw; [4]) | Plant response rating, Blackgrass (blackgrass; [3]) | Blackgrass plant response rating (blackgrass; [7]) | Blackgrass plant response rating (0 to 10 scale) (blackgrass; Preemergence, Rate 250 g/ha) | Blackgrass plant response rating (blackgrass; [4]) | Giant foxtail plant response rating (giant foxtail; [6]) | Giant foxtail plant response rating (giant foxtail; [7]) | Plant response rating, Giant foxtail (giant foxtail; [4]) | Plant response rating, Morningglory (morningglory; [3]) | Plant response rating, Morningglory (morningglory; [4]) | Redroot pigweed plant response rating (pigweed; [7]) | Plant response rating, Redroot pigweed (pigweed; [4]) | Plant response rating, Rape (rape; [4]) | Plant response rating, Wild oats (wild oat; [4])
6: Bedstraw plant response rating (bedstraw; [2]) | Plant response rating, Velvetleaf (velvetleaf; [3]) | Velvetleaf plant response rating (velvetleaf; [6]) | Plant response rating, Wild oats (wild oat; [5]) | Wild oats plant response rating (wild oat; [2])
3: Plant response rating, Bedstraw (bedstraw; [1]) | Rape plant response rating (rape; [7]) | Plant response rating, Soybean (soybean; [4]) | Sugarbeets plant response rating (sugar beet; [6]) | Plant response rating, Velvetleaf (velvetleaf; [5]) | Velvetleaf plant response rating (velvetleaf; [2]) | Wheat plant response rating (wheat; [7]) | Plant response rating, Nutsedge (purple nutsedge; [4])

Reference: patent publication US6737383B1, “Herbicidal oxadiazolidines” (priority 1999, dated 2004)
